These results are taken from patent publication US20180289713A1, “COMPOUNDS FOR TREATING AMYOTROPHIC LATERAL SCLEROSIS” (Hoffmann-La Roche Inc., priority 2015, published 2018).

In experiment [1] the test system is full length SMN2 minigene mRNA (HEK293H cell line stably transfected with SMN2-A minigene). In words: SMN2 minigene mRNA splicing RT-qPCR assay in cultured cells. The note with it: HEK293-H, concentration raising full length SMN2 minigene mRNA 1.5-fold vs vehicle, 24 hours, 7-point curve, read-out: EC1.5x minigene. The experiment is classed as cell-based. The source says:
The term “EC1.5× concentration for production of full length SMN2 minigene mRNA” (or “EC1.5× minigene”) is defined as that concentration of test compound that is effective in increasing the amount of full length SMN2 minigene mRNA to a level 1.5-fold greater relative to that in vehicle-treated cells.
The reverse transcription-quantitative PCR-based (RT-qPCR) assay is used to quantify the level of the full length SMN2 minigene (referred to herein by the term “FL SMN2mini”) mRNA containing SMN2 exon 7 in a HEK293H cell line stably transfected with said minigene and treated with a test compound. Materials used and respective sources are listed below in Table 1.
The SMN2-A minigene construct was prepared as described in International Patent Application WO2009/151546A1 page 145 paragraph [00400] to page 147 paragraph [00412](incl. FIG. 1 and FIG. 3 therein).
HEK293H cells stably transfected with the SMN2-A minigene construct (10,000 cells/well) are seeded in 200 μL of cell culture medium (DMEM plus 10% FBS, with 200 μg/mL hygromycin) in 96-well flat-bottom plates and the plate is immediately swirled to ensure proper dispersal of cells and the formation of an even monolayer of cells. Cells are allowed to attach for 6 hours. Test compounds are serially diluted 3.16-fold in 100% DMSO to generate a 7-point concentration curve. […]
Full length SMN2-A minigene and GAPDH mRNA are quantified using the primers and probes referenced in WO2014/209841A2 on page 80 in Table 1. […]
The increase in the abundance of the FL SMN2mini mRNA relative to that in cells treated with vehicle control is determined from real-time PCR data using a modified […] method (as described in Livak and Schmittgen, Methods, 2001, 25:402-8). The amplification efficiency E is calculated from the slope of the amplification curve for FL SMN2mini and GAPDH individually. The abundance of FL SMN2mini and GAPDH mRNA are then calculated as (1+E)^−Ct, where Ct is the threshold value for each amplicon. […]
In general terms: Quantitative PCR measures a nucleic acid by following its amplification.

Experiment [2] concerns SMN levels in SOD1-ALS iPS cell and TDP43-47A iPS cell line. The note with it: dose dependent; SOD1-ALS and TDP43-47A iPSC-derived ALS models; cited from earlier work.
In another experiment the test system is patients with ALS. The following applies: cited from earlier work.

Molecules are shown by their SMILES.

Consider `Cc1cn2nc(-c3cc(=O)n4cc(N5CCNC6(CC6)C5)ccc4n3)ccc2n1` [Example 19, 7-(4,7-diazaspiro[2.5]octan-7-yl)-2-(2-methylimidazo[1,2-b]pyridazin-6-yl)pyrido[1,2-a]pyrimidin-4-one], for which the EC (1.5-fold) in experiment [1] worked out at 0.0102 µM.
Regarding `CCN1CCC(c2cc(C)c3nc(-c4cc5c(C)nc(C)cn5n4)cc(=O)n3c2)CC1` [SMN-C3], the “increase of SMN levels” value in experiment [2] is on record as “up to 1.4 fold”.
Take `Cc1cn2nc(-c3cc(=O)n4cc(N5CCNC(C)(C)C5)cc(C)c4n3)cc(C)c2n1` [Example 27, 2-(2,8-dimethylimidazo[1,2-b]pyridazin-6-yl)-7-(3,3-dimethylpiperazin-1-yl)-9-methyl-pyrido[1,2-a]pyrimidin-4-one]: in experiment [1], the EC (1.5-fold) is 0.0399 µM.
Regarding `Nc1nc2ccc(OC(F)(F)F)cc2s1` [Riluzole], the “improvement of muscular strength” value with patients with ALS (ALS patients, some reports) was “does not appear to provide any improvement of muscular strength”. For the same compound, the extension of life result with patients with ALS (at least some patients with ALS) is recorded as “three”.
Regarding `Cc1cn2nc(-c3cc(=O)n4cc(N5C[C@@H](C)N[C@@H](C)C5)cc(C)c4n3)cc(C)c2n1` [Example 26, 2-(2,8-dimethylimidazo[1,2-b]pyridazin-6-yl)-7-[(3R,5S)-3,5-dimethylpiperazin-1-yl]-9-methyl-pyrido[1,2-a]pyrimidin-4-one], the EC (1.5-fold) in experiment [1] was 0.327 µM.
